Measurements from US20200030342A1, “DEHYDROEPIANDROSTERONE (DHEA) SUPPL[…] FEMALE SEXUAL DESIRE AND FUNCTION IN PRE-[…]” (American Infertility of New York, P.C., priority 2018, published 2020).

Columns and labels:
[1] = tested on: premenopausal infertile women; test: Female Sexual Function Index (FSFI) questionnaire before and after DHEA supplementation, observational study; assay type: in vivo
Procedure: An observational study was conducted in an academically affiliated private fertility center. Patients included 87 premenopausal infertile women, 50 of whom completed the study including the Female Sexual Function Index (FSFI) questionnaires and comprehensive endocrine evaluation before and 4-8 weeks after initiating 25 mg of oral micronized DHEA TID. An example of a FSFI questionnaire is in a FSFI Scoring Appendix at the end of this patent application together with a discussion as to the manner of determining FSFI domain scores and full-scale score, which establish FSFI baselines.
(§1) All patients in the study were asked to complete the self-reported Female Sexual Function Index (FSFI) questionnaire^31 prior to initiation to DHEA supplements and again 4-8 weeks later. The patients' fertility treatments were not affected by their participation in this study, in laboratory investigations, and/or timing of procedures. Patients underwent the same standard endocrine evaluations all patients undergo at the Center for Human Reproduction, including measurement of serum androgen levels: DHEA, DHEAS, total (TT) and free testosterone (FT) before, and 4-8 weeks after, initiating 25 mg of oral DHEA supplementation TID. All here presented hormone levels were obtained by commercial assays (LabCorp, Burlington, N.C.). All androgen levels were measured using high-pressure liquid chromatography/tandem mass spectrometry.
Pearson correlation was used to investigate relationships between FSFI scores and patient demographics, as well as, hormone levels. Comparisons of FSFI scores and endocrine parameters before—and after—DHEA supplementation were made using paired T-tests. Based on starting FSFI scores patients were further subdivided into quartiles. Patient responses before and after DHEA supplementation from those in lowest and highest quartiles were then compared. Groups were compared using a two-sampled T-test or chi-square test. A P-value <0.05 was considered significant. All analyses were conducted using SAS version 9.4 (SAS Institute Inc. Cary, N.C.).
The individual domain scores and full scale (overall) score of the FSFI can be derived from the computational formula outlined in the table below. For individual domain scores, add the scores of the individual items that comprise the domain and multiply the sum by the domain factor (see below). Add the six domain scores to obtain the full scale score. […] Subject scores can be entered in the right-hand colum.

[2] = Center's experience with DHEA treatment of infertile patients: testosterone levels in response to DHEA or transdermal testosterone; assay type: in vivo, women
Text: One purpose of DHEA supplementation is raising testosterone levels. In other words, the biologically active hormone is testosterone. Its application, however, has more side effects. But some patients have a hard time converting DHEA to testosterone [Shohat-Tal A, Sen A, Barad D H, Kushnir V, Gleicher N. Genetics of androgen metabolism in women with infertility and hypoandrogenism. Nat Rev Endocrinol 2015; 11(7):429-441] and, therefore, must be treated directly with testosterone. The testosterone dosage is 0.05 mg transdermal by pump between once to 2-times per day for the same time period that DHEA supplementation dosages are taken. The peripheral testosterone levels and SHBG in blood are monitored and adjusted accordingly. Sex hormone binding globulin (SHBG) is a protein that is produced by the liver and binds tightly to the hormones testosterone, dihydrotestosterone (DHT), and estradiol (an estrogen). If patients require testosterone directly, the DHEA supplementation is still continued.

[3] = Endocrine evaluation: serum hormone levels before and after DHEA supplementation; assay type: in vivo, women
Text: as §1
The measurement procedures for measuring serum androgen and FSH are conventional. The formulation for an oral dosage of DHEA is conventional.

[4] = Baseline FSFI Score < 25.7, N = 12
[5] = Baseline FSFI Score ≥ 31.9, N = 13
[6] = lowest starting FSFI score quartile (<25.7)
[7] = whole group N=50, DHEA 25 mg TID 4-8 weeks, mean change
[8] = whole group N=50, DHEA 25 mg TID 4-8 weeks, mean change of domain score

C[C@]12CC[C@H](O)CC1=CC[C@@H]1[C@@H]2CC[C@]2(C)C(=O)CC[C@@H]12 [DHEA, dehydroepiandrosterone]
Δ Arousal [1, 4]: 1.3±1.7
Δ Desire [1, 4]: 1.0±0.8
Δ Lubrication [1, 4]: 0.8±2.3
Δ Orgasm [1, 4]: 1.0±2.3
Δ Pain [1, 4]: 0.9±2.3
Δ Satisfaction [1, 4]: 0.9±1.3
Δ Arousal [1, 5]: −0.2 ± 0.5
Δ Desire [1, 5]: −0.1 ± 0.6
Δ Lubrication [1, 5]: −0.1 ± 0.6
Δ Orgasm [1, 5]: −0.5 ± 1.1
Δ Pain [1, 5]: −0.1 ± 0.4
Δ Satisfaction [1, 5]: 0.0 ± 0.7
Δ FSFI Score ([1]; highest starting FSFI quartile, Baseline FSFI Score ≥ 31.9, N = 13, DHEA 25 mg TID 4-8 weeks): −1.0 ± 2.7
Δ FSFI Score ([1]; lowest starting FSFI quartile, Baseline FSFI Score < 25.7, N = 12, DHEA 25 mg TID 4-8 weeks): 6.1±8.0
Improvement in domain arousal [1, 6]: 46%
Improvement in domain desire [1, 6]: 40%
Improvement in domain lubrication [1, 6]: 33%
Improvement in domain orgasm [1, 6]: 54%
Improvement in domain pain [1, 6]: 25%
Improvement in domain satisfaction [1, 6]: 24%
Increase in total FSFI score [1, 6]: 34%
Δ Arousal: Confidence [1, 7]: 0.4
Δ Arousal: Frequency [1, 7]: 0.3
Δ Arousal: Level [1, 7]: 0.4
Δ Arousal: Satisfaction [1, 7]: 0.4
Δ Desire: Frequency [1, 7]: 0.5
Δ Desire: Level [1, 7]: 0.5
Δ Lubrication: Difficulty (first line) [1, 7]: 0.3
Δ Lubrication: Difficulty (second line, after Maintaining) [1, 7]: 0.2
Δ Lubrication: Frequency [1, 7]: 0.3
Δ Lubrication: Maintaining [1, 7]: 0.3
Δ Orgasm: Difficulty [1, 7]: 0.1
Δ Orgasm: Frequency [1, 7]: 0.0
Δ Orgasm: Satisfaction [1, 7]: 0.1
Δ Pain: During [1, 7]: 0.3
Δ Pain: Following [1, 7]: 0.2
Δ Pain: Level [1, 7]: 0.0
Δ Satisfaction: Closeness [1, 7]: 0.3
Δ Satisfaction: Overall [1, 7]: 0.3
Δ Satisfaction: Relationship [1, 7]: 0.2
Δ Arousal [1, 8]: 0.5
Δ Desire [1, 8]: 0.6
Δ Lubrication [1, 8]: 0.4
Δ Orgasm [1, 8]: 0.1
Δ Pain [1, 8]: 0.2
Δ Satisfaction [1, 8]: 0.3
Δ FSFI Score ([1]; whole group, 50 premenopausal infertile women, oral micronized DHEA 25 mg TID, before vs 4-8 weeks after, mean): 2.0
Domain score for arousal, increase ([1]; whole study group): 12%
Domain score for desire, increase ([1]; whole study group): 17%
Domain score for orgasm, change ([1]; whole study group): no significant changes
Domain score for pain, change ([1]; whole study group): no significant changes
Domain score for satisfaction, change ([1]; whole study group): no significant changes
Domain score for lubrication, trend towards improvement ([1]; whole study group, P=0.0551): 8%
FSFI score increase ([1]; whole study group, following DHEA supplementation): 7%
FSFI score after DHEA supplementation ([1]; whole study group, from baseline 27.2±6.9): 29.2±5.6
Patients who do not raise their testosterone levels in response to DHEA supplementation ([2]; infertile patients overall, a little more among African-descent women): less than 5%
Δ Hormone: AMH [3, 4]: 0.0 ± 0.6 ng/mL
Δ Hormone: Cortisol [3, 4]: 2.5 ± 1.6 µg/dL
Δ Hormone: DHEA [3, 4]: 291.0 ± 227.7 ng/dL
Δ Hormone: FSH [3, 4]: −3.6 ± 2.6 mIU/mL
Δ Hormone: Free Testosterone [3, 4]: 1.8 ± 1.3 pg/mL
Δ Hormone: SHBG [3, 4]: -15.8 ± 41.1 nmol/L
Δ Hormone: Total Testosterone [3, 4]: 16.4 ± 18.5 ng/dL
Δ Hormone: AMH [3, 5]: 0.1 ± 0.6 ng/mL
Δ Hormone: Cortisol [3, 5]: -0.4 ± 5.5 µg/dL
Δ Hormone: DHEA [3, 5]: 275.7 ± 186.6 ng/dL
Δ Hormone: FSH [3, 5]: −1.6 ± 3.5 mIU/mL
Δ Hormone: Free Testosterone [3, 5]: 0.5 ± 1.4 pg/mL
Δ Hormone: SHBG [3, 5]: -21.0 ± 51.6 nmol/L
Δ Hormone: Total Testosterone [3, 5]: 11.8 ± 18.6 ng/dL
Δ Hormone: AMH [3, 7]: 0.0 ng/mL
Δ Hormone: Cortisol [3, 7]: 1.3 µg/dL
Δ Hormone: FSH [3, 7]: −2.6 mIU/mL
Δ Hormone: Free Testosterone [3, 7]: 1.4 pg/mL
Δ Hormone: SHBG [3, 7]: -24.0 nmol/L
Δ Hormone: Total Testosterone [3, 7]: 15.1 ng/dL
Δ Hormone: DHEA ([3]; whole group N=50, DHEA 25 mg TID 4-8 weeks, mean change of serum level): 235.1 ng/dL
AMH levels, change ([3]; whole study group): no change
Cortisol levels, change ([3]; whole study group): no change
FSH levels, decrease from baseline ([3]; whole study group, baseline 10.3±5.4 mIU/mL): 2.6±4.4 mIU/mL
SHBG, decrease from baseline ([3]; whole study group, baseline 92.7±43.2 nmol/L): 24.0 ± 39.4 nmol/L
All serum androgen levels (DHEA, DHEAS, TT, FT), change from baseline ([3]; whole study group, each P<0.0001): increased

C[C@]12CC[C@H]3[C@@H](CCC4=CC(=O)CC[C@@]43C)[C@@H]1CC[C@@H]2O [testosterone]
Testosterone levels achieved in patients not responding to DHEA ([2]; 0.05 mg transdermal by pump once to 2-times per day, same time period): very similar testosterone levels are achieved
